# Measured values taken from patent US20200368175A1, “METHODS AND DEVICES FOR TREATING LEVODOPA INDUCED DYSKINESIA” (CHRONO THERAPEUTICS INC., priority 2017, published 2020).
# Where two headings read alike, the source gives them in different places.
# Columns and labels:
# clinical = assay: clinical
# Method: The graph is based on the oral nicotine administration protocol administering a 6 mg nicotine tablet every 6 hours, as described in International Patent Publication No. WO 2013/006643, the entirety of which is incorporated by reference herein.
# To obtain the graph shown in FIG. 2, the plasma concentration-time profile of oral nicotine was simulated using the pharmacokinetic equation (equation 1) for multiple-dose oral administration: […]
# where F is oral bioavailability. D is oral dose, ka is absorption rate constant. Vd is volume of distribution, ke is elimination rate constant, s is dose interval, n is the number of dose, and C is the plasma concentration at any time ‘t’.
# The pharmacokinetic parameters F, D, and T were obtained from Hukkanen, J. et al. Pharmacol Rev. 2005 March; 57(1):79-115 and U.S. Patent Publication No. 20130017259A1. Further, the pharmacokinetic parameter absorption rate constant (ka) shown in the above table was obtained by fitting the orally administered nicotine PK data (obtained from Benowitz, N. L. et al. Clin Pharmacol Ther. 1991 March; 49(3):270-7) to a two-compartmental pharmacokinetic model (shown in FIG. 4). Pharmacokinetic parameters Vd (volume of distribution) and ke (elimination rate constant) were obtained by fitting intravenously administered nicotine PK data (obtained from Benowitz, N. L. et al. Clin Pharmacol Ther. 1991 March; 49(3):270-7) to the two-compartmental model shown in FIG. 4 without the absorption component and lag component.
# [1] = amnestic MCI subjects, six months, cited from earlier work
# [2] = transdermal delivery device, clinical PK data fitted to two-compartmental model with lag compartment
# Excerpt: To obtain the graphs shown in FIGS. 5-7, the plasma concentration-time profile of nicotine administered transdermally was simulated by means of a two compartmental model, as shown in FIG. 4. In addition to the two compartments (Central and peripheral), the lag compartment was included to take absorption lag into account associated with transdermal delivery.
# [3] = oral nicotine, human; from Hukkanen et al. and US 20130017259A1; cited from earlier work
smiles,measurement,setting,value
CN1CCCC1c1cccnc1 (stereo not drawn) [nicotine],Vd,"clinical; human, plasma, iv",76 L
same,"ke (elimination rate constant), average value",clinical; intravenous nicotine PK data of Benowitz et al. fitted to two-compartmental model without absorption and lag components,0.9 h⁻¹
same,"ka (absorption rate constant), average value",clinical; oral nicotine PK data of Benowitz et al. fitted to two-compartmental model,2.5 h⁻¹
same,"effect on attention, memory and psychomotor speed",[1]; 15 mg per day transdermal nicotine vs placebo,"significant nicotine-associated improvements in attention, memory, and psychomotor speed"
same,safety and tolerability,[1]; 15 mg per day transdermal nicotine,excellent safety and tolerability
same,"Vd (volume of distribution), average value",[2],59 L
same,"ka (absorption rate constant), average value",[2],0.29 h⁻¹
same,"ke (elimination rate constant), average value",[2],2.15 h⁻¹
same,"F (oral bioavailability), average value",[3],0.32
